According to patent US10544130B2, “Metallo-beta-lactamase inhibitors” (priority 2015, dated 2020):

How the values were obtained:
[1] = test system: Klebsiella pneumoniae expressing VIM-1 (IHMA599644); assay type: cell-based; conditions: with imipenem 1 μg/ml; 95% inhibition of bacterial growth
Outline: (§1)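 Growth read by absorbance after 22–24 h at 35 °C in CAMHB, with test compound alone or combined with 1 μg/ml imipenem. Inocula came from overnight 35 °C blood-agar colonies, set to a defined OD600 and diluted 1:100. Value is the inhibitor concentration giving synergy.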

[2] = test system: Escherichia coli expressing NDM-1 (CLB30005, CLB30016); assay type: cell-based; conditions: with imipenem 1 μg/ml; 95% inhibition of bacterial growth
Outline: as §1

[3] = test system: Serratia marcescens expressing IMP-1 (CL5741); assay type: cell-based; conditions: with imipenem 1 μg/ml; 95% inhibition of bacterial growth
Outline: as §1

[4] = test system: Pseudomonas aeruginosa PAO1 MB9798 (efflux+, IMP-1); conditions: ratio MITC95 PA 9798/MITC95 PA 9799; imipenem at 2 μg/mL
Outline: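 Isogenic PAO1 pair (efflux+ MB9798, efflux− MB9799, both IMP-1) tested by microbroth MIC with fixed imipenem and/or ceftazidime, usually at CLSI breakpoint, plus fixed class A/C inhibitor against AmpC. MBL inhibitor titrated; concentration restoring susceptibility recorded and fold difference between strains taken as efflux extent.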

| SMILES | Klebsiella pneumoniae (VIM-1) MITC95 [1] | Escherichia coli (NDM-1) MITC95 [2] | Serratia marcescens (IMP-1) MITC95 [3] | Efflux ratio [4] |
| --- | --- | --- | --- | --- |
| NCC(CN)NS(=O)(=O)c1ccc(-c2ccnc(N)c2)c(-c2nn[nH]n2)c1S(N)(=O)=O [Example 405, 4-(2-aminopyridin-4-yl)-N^1-(1,3-diaminopropan-2-yl)-3-(2H-tetrazol-5-yl)benzene-1,2-disulfonamide] | 25 µM |  |  |  |
| Nc1nc2c(-c3ccc(S(=O)(=O)NC[C@]4(N)CCNC4)c(S(N)(=O)=O)c3-c3nn[nH]n3)cccc2s1 [Example 366, (S)-4-(2-aminobenzo[d]thiazol-4-yl)-N^1-((3-aminopyrrolidin-3-yl)methyl)-3-(2H-tetrazol-5-yl)benzene-1,2-disulfonamide] |  | 0.7813 µM | 1.563 µM | 1.00 |
| NCc1nc2c(-c3ccc(S(=O)(=O)NC[C@@H](O)CN)c(S(N)(=O)=O)c3-c3nn[nH]n3)cccc2s1 [Example 306, (S)—N1-(3-amino-2-hydroxypropyl)-4-(2-(aminomethyl)benzo[d]thiazol-4-yl)-(2H-tetrazol-5-yl)benzene-1,2-disulfonamide] |  | 0.7813 µM | 0.7813 µM | 1.00 |
| CNc1nc2c(-c3ccc(S(=O)(=O)N[C@H]4CCNC4)c(S(N)(=O)=O)c3-c3nn[nH]n3)cccc2[nH]1 [Example 295, (S)-4-(2-(methylamino)-1H-benzo[d]imidazol-4-yl)-N1-(pyrrolidin-3-yl)-3-(2H-tetrazol-5-yl)benzene-1,2-disulfonamide] |  | 0.7813 µM | 0.7813 µM | 1.00 |
| NCCNS(=O)(=O)c1ccc(-c2cccc(SCC(N)CO)c2)c(-c2nn[nH]n2)c1S(N)(=O)=O (stereo not shown) [Example 354, 3′-((2-amino-3-hydroxypropyl)thio)-N4-(2-aminoethyl)-2-(2H-tetrazol-5-yl)-[1,1′-biphenyl]-3,4-disulfonamide] |  | 0.3906 µM | 1.563 µM | 4.00 |
| NC(=O)c1nc2c(-c3ccc(S(=O)(=O)N[C@@H]4CCNC4)c(S(N)(=O)=O)c3-c3nn[nH]n3)cccc2[nH]1 [Example 271, (R)-4-(4-(N-(pyrrolidin-3-yl)sulfamoyl)-3-sulfamoyl-2-(2H-tetrazol-5-yl)phenyl)-1H-benzo[d]imidazole-2-carboxamide] |  | 1.563 µM | 0.7813 µM | 0.50 |
| Nc1nc2c(-c3ccc(S(=O)(=O)NC[C@@H]4CNCCN4)c(S(N)(=O)=O)c3-c3nn[nH]n3)cccc2[nH]1 [Example 310, (S)-4-(2-amino-1H-benzo[d]imidazol-4-yl)-N1-(piperazin-2-ylmethyl)-3-(2H-tetrazol-5-yl)benzene-1,2-disulfonamide] |  | 0.7813 µM | 0.7813 µM | 1.00 |
| NC[C@H](CO)NS(=O)(=O)c1ccc(-c2cccc(N)n2)c(-c2nn[nH]n2)c1S(N)(=O)=O [Example 364, (R)—N^1-(1-amino-3-hydroxypropan-2-yl)-4-(6-aminopyridin-2-yl)-3-(2H-tetrazol-5-yl)benzene-1,2-disulfonamide] |  | 3.125 µM | 3.125 µM | 2.00 |
| Nc1nc2c(-c3ccc(S(=O)(=O)NC[C@@]4(N)CCNC4)c(S(N)(=O)=O)c3-c3nn[nH]n3)cccc2[nH]1 [Example 251, (R)-4-(2-amino-1H-benzo[d]imidazol-4-yl)-N1-((3-aminopyrrolidin-3-yl)methyl)-3-(2H-tetrazol-5-yl)benzene-1,2-disulfonamide] |  | 0.7813 µM | 0.7813 µM | 1.00 |
| Cn1c(N)nc2c(-c3ccc(S(=O)(=O)NC[C@H](O)CN)c(S(N)(=O)=O)c3-c3nn[nH]n3)cccc21 [Example 302, (R)-4-(2-amino-1-methyl-1H-benzo[d]imidazol-4-yl)-N1-(3-amino-2-hydroxypropyl)-3-(2H-tetrazol-5-yl)benzene-1,2-disulfonamide] |  | 0.7813 µM | 0.7813 µM | 1.00 |
| NCc1nc2c(-c3ccc(S(=O)(=O)NC(CN)CN)c(S(N)(=O)=O)c3-c3nn[nH]n3)cccc2[nH]1 [Example 385, 4-(2-(Aminomethyl)-1H-benzo[d]imidazol-4-yl)-N1-(1,3-diaminopropan-2-yl)-3-(2H-tetrazol-5-yl)benzene-1,2-disulfonamide] |  | 0.7813 µM | 0.7813 µM | 1.00 |
| Nc1ncc(-c2ccc(S(=O)(=O)N[C@@H]3CNC[C@@H]3N)c(S(N)(=O)=O)c2-c2nn[nH]n2)s1 [Example 321, N^1-((3R,4S)-4-aminopyrrolidin-3-yl)-4-(2-aminothiazol-5-yl)-3-(2H-tetrazol-5-yl)benzene-1,2-disulfonamide] |  | 0.7813 µM | 1.563 µM | 2.00 |
| NCc1nc2c(-c3ccc(S(=O)(=O)N[C@@H](CN)CO)c(S(N)(=O)=O)c3-c3nn[nH]n3)cccc2s1 [Example 381, (S)—N1-(1-amino-3-hydroxypropan-2-yl)-4-(2-(aminomethyl)benzo[d]thiazol-4-yl)-3-(2H-tetrazol-5-yl)benzene-1,2-disulfonamide] |  | 0.7813 µM | 1.172 µM | 1.50 |
| NCc1nc2cc(-c3ccc(S(=O)(=O)N[C@@H]4CCNC4)c(S(N)(=O)=O)c3-c3nn[nH]n3)ccc2s1 [Example 275, (R)-4-(2-(aminomethyl)benzo[d]thiazol-5-yl)-N^1-(pyrrolidin-3-yl)-3-(2H-tetrazol-5-yl)benzene-1,2-disulfonamide] |  | 0.7813 µM | 0.7813 µM | 1.00 |
| NS(=O)(=O)c1c(S(=O)(=O)N[C@@H]2CCNC2)ccc(-c2cccc3ncccc23)c1-c1nn[nH]n1 [Example 287, (R)-N1-(pyrrolidin-3-yl)-4-(quinolin-5-yl)-3-(2H-tetrazol-5-yl)benzene-1,2-disulfonamide] |  | 1.563 µM | 1.563 µM | 1.00 |
| NS(=O)(=O)c1c(S(=O)(=O)N[C@@H]2CCNC2)ccc(-c2cnc3cc[nH]c3c2)c1-c1nn[nH]n1 [Example 282, (R)-N1-(pyrrolidin-3-yl)-4-(1H-pyrrolo[3,2-b]pyridin-6-yl)-3-(2H-tetrazol-5-yl)benzene-1,2-disulfonamide] |  | 0.7813 µM | 0.7813 µM | 1.00 |
| N[C@H]1CNC[C@H]1NS(=O)(=O)c1ccc(-c2cnc3cc[nH]c3c2)c(-c2nn[nH]n2)c1S(N)(=O)=O [Example 320] |  | 0.7813 µM | 0.7813 µM | 2.00 |
| Nc1ncc(-c2ccc(S(=O)(=O)N[C@H]3CNC[C@H]3N)c(S(N)(=O)=O)c2-c2nn[nH]n2)s1 [Example 325, N1-((3S,4R)-4-aminopyrrolidin-3-yl)-4-(2-aminothiazol-5-yl)-3-(2H-tetrazol-5-yl)benzene-1,2-disulfonamide] |  | 0.7813 µM | 1.563 µM | 2.00 |
| NCC(CO)(CO)NS(=O)(=O)c1ccc(-c2cccc3[nH]c(N)nc23)c(-c2nn[nH]n2)c1S(N)(=O)=O [Example 247, 4-(2-amino-1H-benzo[d]imidazol-4-yl)-N-1-(1-amino-3-hydroxy-2-(hydroxymethyl)propan-2-yl)-3-(2H-tetrazol-5-yl)benzene-1,2-disulfonamide] |  | 0.7813 µM | 1.563 µM | 2.00 |
| NC[C@H](O)CNS(=O)(=O)c1ccc(-c2cccc3[nH]c(N)nc23)c(-c2nn[nH]n2)c1S(N)(=O)=O [Example 304, (S)-4-(2-amino-1H-benzo[d]imidazol-4-yl)-N1-(3-amino-2-hydroxypropyl)-3-(2H-tetrazol-5-yl)-benzene-1,2-disulfonamide] |  | 0.3906 µM | 0.7813 µM | 0.50 |
| CNc1ccc(-c2ccc(S(=O)(=O)N[C@@H]3CCNC3)c(S(N)(=O)=O)c2-c2nn[nH]n2)cn1 [Example 242] |  | 0.7813 µM | 0.7813 µM | 1.00 |
| NCCCNC(=O)c1cccc(-c2ccc(S(=O)(=O)NCCN)c(S(N)(=O)=O)c2-c2nn[nH]n2)c1 [Example 341, 4′-(N-(2-aminoethyl)sulfamoyl)-N-(3-aminopropyl)-3′-sulfamoyl-2′-(2H-tetrazol-5-yl)-[1,1′-biphenyl]-3-carboxamide] |  | 0.7813 µM | 1.563 µM | 2.00 |
| NC[C@@H](N)CNS(=O)(=O)c1ccc(-c2cnc(N)s2)c(-c2nn[nH]n2)c1S(N)(=O)=O [Example 377, (R)-4-(2-aminothiazol-5-yl)-N1-(2,3-diaminopropyl)-3-(2H-tetrazol-5-yl)benzene-1,2-disulfonamide] |  | 0.7813 µM | 1.563 µM | 2.00 |
